Broadly, the IC50 is the concentration that inhibits the measured activity by half.

This note sets out measurements from ChEMBL document CHEMBL1151532, “Oxa-prostanoid analogs. Identification of an orally effective, dual thromboxane receptor antagonist /thromboxane synthase inhibitor” (Bioorg Med Chem Lett, 1994).

The target of one assay is T1, Thromboxane-A synthase (Homo sapiens, UniProt P24557).
T1 sequence (P24557 whole entry): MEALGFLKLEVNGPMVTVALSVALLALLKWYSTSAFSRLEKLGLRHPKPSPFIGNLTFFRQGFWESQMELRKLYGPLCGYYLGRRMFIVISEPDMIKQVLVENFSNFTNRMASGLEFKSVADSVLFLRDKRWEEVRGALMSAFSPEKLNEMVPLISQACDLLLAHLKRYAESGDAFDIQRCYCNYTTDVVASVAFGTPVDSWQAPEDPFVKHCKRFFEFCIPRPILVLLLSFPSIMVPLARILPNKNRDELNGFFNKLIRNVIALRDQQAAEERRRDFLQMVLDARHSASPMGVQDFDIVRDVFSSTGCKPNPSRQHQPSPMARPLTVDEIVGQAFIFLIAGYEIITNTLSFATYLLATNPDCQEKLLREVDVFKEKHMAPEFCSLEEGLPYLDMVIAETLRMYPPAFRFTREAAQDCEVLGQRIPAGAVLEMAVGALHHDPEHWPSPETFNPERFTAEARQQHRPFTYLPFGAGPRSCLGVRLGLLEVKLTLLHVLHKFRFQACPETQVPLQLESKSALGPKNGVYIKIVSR
Briefly: In vitro inhibition against thromboxane synthase.

The next assay has as its system Cavia porcellus. Briefly: Ex vivo inhibition of […] induced guinea pig platelet aggregation after 1 hr post oral administration at a dose of 10 mg/kg; Aggregation ratio = EC50 for drug/EC50 for control. The format is functional.
Assay [1] in a line: In vitro thromboxane receptor antagonist against U-46619 induced aggregation of washed human platelets.

Several values for one entry are separate records, joined by “and”; a condition that tells them apart may be missing. Equal entries are not always repeated.

For `O=C(O)CC/C=C\CC[C@H]1[C@@H](OCc2ccc(-c3ccccc3)cc2)CO[C@@H]1c1cccnc1` (stereo in doubt; (-)), on Thromboxane-A synthase, the IC50 stood at 120 nM.

`O=C(O)CC/C=C\CC[C@H]1[C@@H](OCc2ccc(-c3ccccc3)cc2)CO[C@H]1c1cccnc1` registered an IC50 against Thromboxane-A synthase of 32 nM. The compound `O=C(O)CC/C=C\CC[C@H]1[C@@H](OCc2ccc(-c3ccccc3)cc2)CO[C@@H]1c1cccnc1` (stereo in doubt; (+)) displayed an IC50 at Thromboxane-A synthase of 4.3 nM. In the assay on Cavia porcellus (10 mg/kg), the Aggregation ratio was >100 and 65.6. For `O=C(O)CCC(CCCCNS(=O)(=O)c1ccc(Cl)cc1)CCCc1cccnc1` (stereo not given), the Aggregation ratio with Cavia porcellus turned out to be 24.5. For the same compound, the IC50 in assay [1] is 18 nM.

`O=C(O)CC/C=C\CC[C@H]1[C@H](OCc2ccc(-c3ccccc3)cc2)CO[C@H]1c1cccnc1` returned an IC50 at Thromboxane-A synthase of 65 nM. With `O=C(O)CC/C=C\CC[C@@H]1[C@@H](c2cccnc2)OC[C@H]1OCc1ccc(-c2ccccc2)cc1`, at Thromboxane-A synthase, the IC50 amounted to 22 nM. On the same count and under the same terms, with `O=C(O)CC/C=C\CC[C@H]1[C@@H](OCc2ccc(-c3ccccc3)cc2)CO[C@@H]1c1cccnc1` (stereo in doubt; 5) the figure was 17 nM. `O=C(O)CCCCO/N=C(/c1cccnc1)c1cccc(C(F)(F)F)c1` [RIDOGREL]: the Aggregation ratio in the assay on Cavia porcellus came to 4.4.
